These results are taken from PMC2248166, “Quantitative peptide binding motifs for 19 human and mouse MHC class I molecules derived using positional scanning combinatorial peptide libraries” (Immunome Research, 2008).

As usually defined, the IC50 is the concentration needed to halve the response being measured.

Each structure is given as a SMILES string. Where a SMILES comes first, the peptide text is derived from it.

This assay deals with HLA B*0801 (Homo sapiens, UniProt P01889, A93T/A95T/D138N/E176V/E187T/K202T/Q94N/R180D/S35A/V36M/Y33D/Y91F). The experiment in a line: biochemical. In kind it is binding.

In the case of `CC(C)C[C@H](NC(=O)[C@@H](NC(=O)[C@H](CO)NC(=O)[C@H](Cc1ccccc1)NC(=O)[C@H](CC(C)C)NC(=O)[C@H](CO)NC(=O)[C@H](CC(C)C)NC(=O)[C@H](CC(C)C)NC(=O)[C@@H](N)Cc1ccc(O)cc1)[C@@H](C)O)C(=O)O` [3102.0750] (H-YLLSLFSTL-OH), the IC50 is 0.004 µM.

For `CC[C@H](C)[C@H](NC(=O)[C@@H](NC(=O)[C@H](C)N)[C@@H](C)O)C(=O)N[C@@H](CCC(N)=O)C(=O)N[C@@H](CCCNC(=N)N)C(=O)N[C@@H](Cc1ccccc1)C(=O)N[C@@H](CO)C(=O)N[C@@H](CO)C(=O)N[C@@H](CC(C)C)C(=O)O` [3102.0756] (H-ATIQRFSSL-OH), the midpoint of inhibition, the IC50, lay at 0.0033 µM.

In turn, `CC(C)C[C@H](NC(=O)[C@H](CS)NC(=O)[C@H](CCC(=O)O)NC(=O)[C@H](CCCCN)NC(=O)[C@H](Cc1c[nH]cn1)NC(=O)[C@H](CC(C)C)NC(=O)[C@H](CCCNC(=N)N)NC(=O)[C@H](CC(N)=O)NC(=O)[C@@H](N)CCC(=O)O)C(=O)O` [3102.0562] (H-ENRLHKECL-OH) gave an IC50 of 0.073 µM.

Take `CC[C@H](C)[C@H](NC(=O)[C@H](Cc1ccccc1)NC(=O)[C@H](Cc1ccccc1)NC(=O)[C@@H](N)CCSC)C(=O)N[C@@H](CCCNC(=N)N)C(=O)N[C@@H](Cc1ccccc1)C(=O)NCC(=O)N[C@@H](CCCCN)C(=O)N[C@@H](CCSC)C(=O)O` [3102.0559] (H-MFFIRFGKM-OH): the IC50 turned out to be 0.032 µM.

On to `CC[C@H](C)[C@H](NC(=O)[C@@H](NC(=O)[C@H](Cc1ccccc1)NC(=O)[C@H](CCCCN)NC(=O)[C@H](CCC(N)=O)NC(=O)[C@H](CCSC)NC(=O)[C@H](CC(=O)O)NC(=O)[C@@H](N)CO)[C@@H](C)O)C(=O)N[C@@H](CC(C)C)C(=O)O` [3102.0699] (H-SDMQKFTIL-OH), for which half-maximal inhibition (IC50) required 0.041 µM.

Consider `CC(C)C[C@H](NC(=O)[C@H](CO)NC(=O)[C@H](Cc1ccccc1)NC(=O)[C@@H]1CCCN1C(=O)[C@H](CCCNC(=N)N)NC(=O)[C@H](CCCNC(=N)N)NC(=O)[C@H](CC(C)C)NC(=O)[C@H](CC(C)C)NC(=O)[C@@H](N)CCCCN)C(=O)O` [3102.0529] (H-KLLRRPFSL-OH), for which it took 0.00036 µM to reach half-maximal inhibition (IC50).

On to `CC[C@H](C)[C@H](NC(=O)[C@H](Cc1c[nH]cn1)NC(=O)[C@H](Cc1ccccc1)NC(=O)[C@H](CCCCN)NC(=O)[C@H](CC(C)C)NC(=O)[C@H](CCCNC(=N)N)NC(=O)[C@H](CS)NC(=O)[C@@H](N)Cc1c[nH]c2ccccc12)C(=O)N[C@H](C(=O)O)C(C)C` [3102.0584] (H-WCRLKFHIV-OH), for which the IC50 is 0.082 µM.

Consider `CC[C@H](C)[C@H](NC(=O)[C@H](CCCNC(=N)N)NC(=O)[C@H](Cc1ccc(O)cc1)NC(=O)[C@H](CCCCN)NC(=O)[C@H](CC(N)=O)NC(=O)[C@@H](N)CO)C(=O)N[C@@H](CCCCN)C(=O)N[C@@H](CO)C(=O)N[C@H](C(=O)O)C(C)C` [3102.0666] (H-SNKYRIKSV-OH), for which the midpoint of inhibition, the IC50, lay at 0.0027 µM.

In turn, `CC[C@H](C)[C@H](NC(=O)[C@H](CCC(=O)O)NC(=O)[C@H](CCCNC(=N)N)NC(=O)[C@H](CC(C)C)NC(=O)[C@@H](N)CCC(=O)O)C(=O)N[C@@H](Cc1ccccc1)C(=O)N[C@@H](CCCNC(=N)N)C(=O)N[C@@H](CCCNC(=N)N)C(=O)N[C@@H](CC(C)C)C(=O)O` [3102.0772] (H-ELREIFRRL-OH) registered an IC50 of 0.027 µM.

On to `CSCC[C@H](NC(=O)[C@H](Cc1ccccc1)NC(=O)CNC(=O)[C@@H](N)[C@@H](C)O)C(=O)N[C@@H](CCCNC(=N)N)C(=O)N[C@@H](Cc1ccccc1)C(=O)N[C@@H](Cc1ccccc1)C(=O)N[C@@H](CCC(N)=O)C(=O)N[C@@H](CC(C)C)C(=O)O` [3102.0731] (H-TGFMRFFQL-OH), for which the midpoint of inhibition, the IC50, lay at 0.00097 µM.

The compound `CSCC[C@H](N)C(=O)N[C@@H](Cc1ccccc1)C(=O)NCC(=O)N[C@H](C(=O)N[C@@H](CCCNC(=N)N)C(=O)N[C@@H](CCCCN)C(=O)N[C@@H](CC(N)=O)C(=O)N[C@@H](CO)C(=O)N[C@@H](Cc1ccccc1)C(=O)O)[C@@H](C)O` [3102.0718] (H-MFGTRKNSF-OH) returned a 50% inhibitory concentration (IC50) of 0.002 µM.

`CC(C)[C@H](NC(=O)[C@H](CC(N)=O)NC(=O)[C@H](C)NC(=O)[C@H](Cc1ccccc1)NC(=O)[C@H](CCCCN)NC(=O)[C@H](CCCCN)NC(=O)[C@H](Cc1c[nH]cn1)NC(=O)[C@H](CCCNC(=N)N)NC(=O)[C@@H](N)CC(N)=O)C(=O)O` [3102.0572] (H-NRHKKFANV-OH): it took 0.036 µM to reach half-maximal inhibition (IC50).

`CC[C@H](C)[C@H](NC(=O)[C@H](CCC(=O)O)NC(=O)[C@H](CCSC)NC(=O)[C@H](CCCNC(=N)N)NC(=O)[C@@H](N)CC(N)=O)C(=O)N[C@@H](Cc1ccccc1)C(=O)N[C@@H](CC(C)C)C(=O)N[C@H](C(=O)N[C@@H](CC(C)C)C(=O)O)C(C)C` [3102.0723] (H-NRMEIFLVL-OH) displayed an IC50 of 0.0049 µM. Against the preceding compound, the IC50 is about 7.3-fold lower.

In the case of `CC(C)C[C@H](NC(=O)[C@@H](NC(=O)[C@H](CCCNC(=N)N)NC(=O)[C@H](Cc1ccccc1)NC(=O)[C@H](CCCCN)NC(=O)[C@H](CO)NC(=O)[C@H](CC(C)C)NC(=O)[C@H](CCC(N)=O)NC(=O)[C@@H](N)CC(=O)O)[C@@H](C)O)C(=O)O` [3102.0710] (H-DQLSKFRTL-OH), the midpoint of inhibition, the IC50, lay at 0.0074 µM. Against the preceding compound, the IC50 is about 1.5-fold higher.

Take `CC[C@H](C)[C@H](NC(=O)[C@@H](NC(=O)[C@H](CO)NC(=O)[C@H](CCCNC(=N)N)NC(=O)[C@H](CCC(=O)O)NC(=O)[C@H](CCCCN)NC(=O)[C@H](CCSC)NC(=O)[C@@H](N)CCSC)[C@@H](C)O)C(=O)N[C@@H](CC(C)C)C(=O)O` [3102.0596] (H-MMKERSTIL-OH): the IC50 came out at 0.035 µM. Compared with the last compound, the IC50 is about 4.7-fold higher.

In turn, `CC[C@H](C)[C@H](NC(=O)[C@H](CCCNC(=N)N)NC(=O)[C@@H](N)CO)C(=O)N[C@@H](CO)C(=O)N[C@@H](CCCNC(=N)N)C(=O)N[C@@H](Cc1ccccc1)C(=O)N[C@@H](C)C(=O)N[C@@H](CC(N)=O)C(=O)N[C@@H](CC(C)C)C(=O)O` [3102.0622] (H-SRISRFANL-OH) returned an IC50 of 0.02 µM.

`CC[C@H](C)[C@H](NC(=O)[C@H](Cc1ccc(O)cc1)NC(=O)[C@@H](NC(=O)[C@H](CCCCN)NC(=O)[C@H](CCCCN)NC(=O)[C@H](Cc1ccccc1)NC(=O)[C@H](CCCNC(=N)N)NC(=O)[C@@H](N)CO)C(C)C)C(=O)N[C@@H](CC(C)C)C(=O)O` [3102.0579] (H-SRFKKVYIL-OH) registered a half-maximal inhibitory concentration (IC50) of 0.076 µM.

With `CC[C@H](C)[C@H](NC(=O)[C@H](CC(=O)O)NC(=O)[C@H](CC(C)C)NC(=O)[C@@H]1CCCN1C(=O)[C@H](CCCCN)NC(=O)[C@H](CC(C)C)NC(=O)[C@H](CCCNC(=N)N)NC(=O)[C@H](C)NC(=O)[C@@H](N)CC(N)=O)C(=O)O` [3102.0711] (H-NARLKPLDI-OH), the IC50 was 0.00081 µM.

In the case of `CC[C@H](C)[C@H](NC(=O)[C@@H](N)CO)C(=O)N[C@@H](Cc1c[nH]cn1)C(=O)N[C@@H](CCC(=O)O)C(=O)N[C@@H](CCCCN)C(=O)N[C@@H](Cc1ccccc1)C(=O)N[C@@H](Cc1c[nH]c2ccccc12)C(=O)N1CCC[C@H]1C(=O)N[C@@H](CC(C)C)C(=O)O` [3102.0550] (H-SIHEKFWPL-OH), the midpoint of inhibition, the IC50, lay at 0.0014 µM.

Regarding `CC(C)C[C@H](NC(=O)[C@@H](N)CC(C)C)C(=O)N[C@@H](CCCCN)C(=O)N[C@@H](Cc1ccccc1)C(=O)N[C@@H](CCCNC(=N)N)C(=O)N[C@H](C(=O)N[C@@H](CCC(=O)O)C(=O)N[C@@H](CO)C(=O)N[C@@H](CS)C(=O)O)C(C)C` [3102.0675] (H-LLKFRVESC-OH), the IC50 was 0.074 µM. This IC50 lies about 53-fold higher than the previous one.

`CC(C)C[C@H](NC(=O)[C@H](CCCNC(=N)N)NC(=O)[C@H](CCCCN)NC(=O)[C@H](CC(N)=O)NC(=O)[C@H](CCCNC(=N)N)NC(=O)[C@H](CC(C)C)NC(=O)[C@H](CCCNC(=N)N)NC(=O)[C@H](CCCNC(=N)N)NC(=O)[C@@H](N)Cc1c[nH]cn1)C(=O)O` [3102.0641] (H-HRRLRNKRL-OH) came in with an IC50 of 0.028 µM.

Compound `CC[C@H](C)[C@H](NC(=O)[C@H](CC(N)=O)NC(=O)[C@H](CC(C)C)NC(=O)[C@H](CCCCN)NC(=O)[C@H](CC(N)=O)NC(=O)[C@H](CCSC)NC(=O)[C@@H](NC(=O)[C@@H](N)CC(N)=O)[C@@H](C)CC)C(=O)N[C@H](C(=O)O)C(C)C` [3102.0721] (H-NIMNKLNIV-OH) gave a half-inhibitory concentration (IC50) of 0.0057 µM. This IC50 lies about 4.9-fold lower than the previous one.

`CC[C@H](C)[C@H](NC(=O)[C@H](CO)NC(=O)[C@@H](NC(=O)[C@H](CC(C)C)NC(=O)[C@H](CCCCN)NC(=O)[C@H](CCSC)NC(=O)[C@H](CCCCN)NC(=O)[C@@H](NC(=O)[C@@H](N)CO)[C@@H](C)CC)C(C)C)C(=O)O` [3102.0585] (H-SIKMKLVSI-OH) showed a half-inhibitory concentration (IC50) of 0.016 µM.

For the compound `CC[C@H](C)[C@H](NC(=O)[C@H](Cc1ccc(O)cc1)NC(=O)[C@@H](NC(=O)[C@@H](N)CO)C(C)C)C(=O)N[C@@H](CCCNC(=N)N)C(=O)N1CCC[C@H]1C(=O)N[C@H](C(=O)N[C@@H](CO)C(=O)N[C@@H](CC(C)C)C(=O)O)[C@@H](C)O` [3102.0627] (H-SVYIRPTSL-OH), the 50% inhibitory concentration (IC50) came out at 0.011 µM.

`CSCC[C@H](NC(=O)[C@H](CCC(N)=O)NC(=O)[C@H](CCCCN)NC(=O)[C@@H](NC(=O)[C@H](CCC(N)=O)NC(=O)[C@@H]1CCCN1C(=O)[C@@H](N)CC(N)=O)[C@@H](C)O)C(=O)N[C@@H](C)C(=O)N[C@@H](Cc1ccccc1)C(=O)O` [3102.0698] (H-NPQTKQMAF-OH): the half-inhibitory concentration (IC50) turned out to be 0.014 µM.

With `CC(C)C[C@H](NC(=O)[C@@H](N)Cc1ccc(O)cc1)C(=O)N[C@@H](CCCNC(=N)N)C(=O)N[C@H](C(=O)N[C@@H](CCCCN)C(=O)N1CCC[C@H]1C(=O)N[C@@H](C)C(=O)N[C@@H](CO)C(=O)N[C@@H](C)C(=O)O)[C@@H](C)O` [3102.0686] (H-YLRTKPASA-OH), half-maximal inhibition (IC50) was put at 0.0015 µM.

Compound `CC[C@H](C)[C@H](NC(=O)[C@H](CCCNC(=N)N)NC(=O)[C@H](CCC(=O)O)NC(=O)[C@H](CCCCN)NC(=O)[C@H](CCSC)NC(=O)[C@@H](N)CC(C)C)C(=O)N[C@@H](CO)C(=O)N[C@@H](CO)C(=O)N[C@@H](CCC(=O)O)C(=O)O` [3102.0597] (H-LMKERISSE-OH) displayed an IC50 of 0.082 µM.

In the case of `CC(C)C[C@H](NC(=O)[C@@H](NC(=O)[C@@H](NC(=O)[C@H](CC(N)=O)NC(=O)[C@H](Cc1ccccc1)NC(=O)[C@H](CC(C)C)NC(=O)[C@H](CCCCN)NC(=O)[C@H](CC(C)C)NC(=O)[C@@H](N)CCC(=O)O)C(C)C)[C@@H](C)O)C(=O)O` [3102.0729] (H-ELKLFNVTL-OH), half-maximal inhibition (IC50) was put at 0.0047 µM. This IC50 lies about 17-fold lower than the previous one.
